Laboratory results taken from US20250212875A1, “PESTICIDAL AND HERBICIDAL COMPOUNDS AND METHODS OF USE THEREOF” (AG PLENUS LTD, priority 2022, published 2025).

Assays:
Alopecurus myosuroides = assay: LTP pre-emergence greenhouse screen; format: in vivo
Description: (§1) Sowing was performed one day before application.
(§2) Percentage of emergence was evaluated at 15 DAA.

Digitaria sanguinalis [1] = assay: LTP pre-emergence greenhouse screen; format: in vivo
Description: as §1, §2

Echinochloa colona [2] = assay: LTP pre-emergence greenhouse screen; format: in vivo
Description: as §1, §2

Echinochloa crus-galli [3] = assay: LTP pre-emergence greenhouse screen; format: in vivo
Description: as §1, §2

Lolium multiflorum [4] = assay: LTP pre-emergence greenhouse screen; format: in vivo
Description: as §1, §2

Lolium perenne [5] = assay: LTP pre-emergence greenhouse screen; format: in vivo
Description: as §1, §2

Phalaris paradoxa = assay: LTP pre-emergence greenhouse screen; format: in vivo
Description: as §1, §2

Poa annua [6] = assay: LTP pre-emergence greenhouse screen; format: in vivo
Description: as §1, §2

Arabidopsis thaliana [7] = assay: HTPS post-emergence on miniature dicot model plants; format: in vivo; conditions: green area (RGB), maximal concentration 1.5 kg/ha, read-out: Max inhibition (%)
Description: Arabidopsis thaliana seeds were sown in 96 well plates filled with irrigated Sweet sand (10%>clay) that is washed from salts and minerals using tap water. 5-10 seeds were sown in the center of each well. 7-8 days post sowing, at 2 true leaves stage, thinning out was performed to ensure that compound application is done on a single plant per well. The plates were placed in a controlled greenhouse in a random order inside a bath which allows flooding irrigation with tap water supplemented with a fertilizer. Applied compounds were dissolved into a final solution of 50% acetone, 49.9% DDW, 0.1% tween-20. A 96 well plate was used as a stock plate for preparing application solutions for 8 repeats. Each row contained different concentrations per chemical. Maximal concentration for application was 1.5 kg/ha and dilution factor is 2.5. Chemical application was performed one day after thinning out in a chemical hood. 5 μL applied on first two true leaves in each well using 12 channel pipettes. Data collection: RGB (red, green, blue) data for green area per well was documented using camera. Data is collected at a few time points during the experiment: one day after thinning and before chemical application, two-, six- or nine-days post application. During the last two documentations, visual phenotyping was performed. Data analysis: Given RGB results and visual phenotype scores, a student t-test conducted to compare between treatment and control performance for continuous data (RGB) and Fisher exact test to analyze the non-continuous data (phenotypic scores). Dose-Response curves are generated for each treatment to infer ED50 and max. inhibition parameters, using treatment's log concentration range as the […] variable and normalized green area. Plate imaging performed at 11 and 18 DAA. RGB data for green area per well was documented and used to extract % inhibition. Dose-Response curves were built for each treatment to infer EC50, EC75 and EC90 parameters, using treatment's log concentration range as the independent variable and normalized green area as the dependent variable. Treatments were compared to controls performance given RGB results and using student's t-test (p-val≤0.05). Compounds 101, 110, 112, 119, 124, 125, 146, 154, 157, 172, 170, 169, 112, and 166 were applied in either or both pre- and post-emergence mode to either or both monocot and dicot model plants, following the methods described above. The compounds were applied as a gradient of concentrations as listed above, from which the ED50 was calculated.

[8] = tested on: monocot and eudicot weeds species; assay: LTP weed panel, summary in words; format: in vivo; conditions: for growth inhibition (in words): mainly in pre-emergence applications
[9] = tested on: monocot and dicot model plants; assay: HTPS model plants, summary in words; format: in vivo; conditions: HTPS systems where they were tested
Description: Arabidopsis thaliana seeds were sown in 96 well plates filled with irrigated Sweet sand (10%>clay) that is washed from salts and minerals using tap water. 5-10 seeds were sown in the center of each well. 7-8 days post sowing, at 2 true leaves stage, thinning out was performed to ensure that compound application is done on a single plant per well. The plates were placed in a controlled greenhouse in a random order inside a bath which allows flooding irrigation with tap water supplemented with a fertilizer. Applied compounds were dissolved into a final solution of 50% acetone, 49.9% DDW, 0.1% tween-20.
A 96 well plate was used as a stock plate for preparing application solutions for 8 repeats. Each row contained different concentrations per chemical. Maximal concentration for application was 1.5 kg/ha and dilution factor is 2.5. Chemical application was performed one day after thinning out in a chemical hood. 5 μL applied on first two true leaves in each well using 12 channel pipettes. […]
(§3) Compounds 101, 110, 112, 119, 124, 125, 146, 154, 157, 172, 170, 169, 112, and 166 were applied in either or both pre- and post-emergence mode to either or both monocot and dicot model plants, following the methods described above. The compounds were applied as a gradient of concentrations as listed above, from which the ED50 was calculated.

Setaria viridis = assay: LTP post-emergence greenhouse screen
Description: (§4) A basic panel of eight weed species (Table 3) sowed in 4×4×7 cm plastic pots containing a garden mix (klasmann). Each specie was sowed in a separate pot. In each pot, 10-15 seeds were sowed according to the specie viability. Timing of application determined at a 1-2 true leaf stage. The plants grew for 30 days in a controlled greenhouse (26±2° C. day, 20±2° C. night). Flood irrigation (tap water+Shefer 5:3:8 8 mM) was given at a 50% water content by weight. Two days before application, the tested plants thinned down to three plants per pot. Compounds were soluble in water (DDW), and commercial herbicide control was soluble in formulation B (Table 4). Before application, 1% (v/v) crop oil and 0.02% (v/v) surfactant (Tergitol™ 15-S-7) were added to the solution. Application was conducted with an industrial sprayer (TeeJet 6502E nozzle) at a rate of 2 kg/ha and spray volume of 4801/ha. Plants were evaluated at 3 time points (4, 8, 12 days after application (DAA)). At each time point, visual phenotyping was recorded using a scale of 0-6 (0: no visible effect, 6: maximum effect). At 12 DAA, plants foliage was harvested, dried and weighed for dry weight analysis.
(§5) Post-emergence advanced wide panel experiment included 24 weed species (Table 5). Application was conducted at 2 rates of 2 kg/ha and 0.25 kg/ha and spray volume of 480 l/ha. Visual phenotyping was recorded at 4, 11, 17 and 20 DAA using a scale of 0-6 (0: no visible effect, 6: maximum effect). At 21 DAA, plants foliage was harvested, dried, and weighed for dry weight analysis. All experiments included an untreated control, a solvent control, and a positive control (commercial herbicide A.I.). Statistical analysis for visual phenotyping determined by a median value of ≥3.5 and Fisher test (pval≤0.05). Statistical analysis for dry weight determined by % inhibition ≥50 and T test (pval≤0.05), as well as Wilcox test (pval≤0.05).

Alopecurus monureide's = assay: LTP post-emergence greenhouse screen
Description: as §4, §5

Lolium perenne [10] = assay: LTP post-emergence greenhouse screen
Description: (§6) A basic panel of eight weed species (Table 3) sowed in 4×4×7 cm plastic pots containing a garden mix (klasmann). Each specie was sowed in a separate pot. In each pot, 10-15 seeds were sowed according to the specie viability. Timing of application determined at a 1-2 true leaf stage. The plants grew for 30 days in a controlled greenhouse (26±2° C. day, 20±2° C. night). Flood irrigation (tap water+Shefer 5:3:8 8 mM) was given at a 50% water content by weight. Two days before application, the tested plants thinned down to three plants per pot. Compounds were soluble in water (DDW), and commercial herbicide control was soluble in formulation B (Table 4). Before application, 1% (v/v) crop oil and 0.02% (v/v) surfactant (Tergitol™ 15-S-7) were added to the solution. […] Plants were evaluated at 3 time points (4, 8, 12 days after application (DAA)). At each time point, visual phenotyping was recorded using a scale of 0-6 (0: no visible effect, 6: maximum effect). […]
(§7) All experiments included an untreated control, a solvent control, and a positive control (commercial herbicide A.I.). Statistical analysis for visual phenotyping determined by a median value of ≥3.5 and Fisher test (pval≤0.05). Statistical analysis for dry weight determined by % inhibition ≥50 and T test (pval≤0.05), as well as Wilcox test (pval≤0.05).

Poa annua [11] = assay: LTP post-emergence greenhouse screen
Description: as §4, §5

Echinochloa colona [12] = assay: LTP post-emergence greenhouse screen
Description: as §4, §5

Digitaria sanguinalis [13] = assay: LTP post-emergence greenhouse screen
Description: as §4, §5

Lolium multiflorum [14] = assay: LTP post-emergence greenhouse screen
Description: as §6, §7

Echinochloa crus-galli [15] = assay: LTP post-emergence greenhouse screen
Description: as §4, §7

Amaranthus palmeri [16] = assay: LTP pre-emergence greenhouse screen; format: in vivo
Description: as §1, §2

Matricaria chamomilla = assay: LTP pre-emergence greenhouse screen; format: in vivo
Description: as §1, §2

Amaranthus tuberculatus = assay: LTP post-emergence greenhouse screen; format: in vivo
Galium aparine = assay: LTP post-emergence greenhouse screen
Description: as §6, §7

Arabidopsis thaliana [17] = assay: HTPS pre-emergence on dicot model plants; format: in vivo; conditions: green area (RGB)
Description: A 96 well plate was used as a stock plate for preparing application solutions for 8 repeats. Each row contained different concentrations per chemical. Maximal concentration for application was 1.5 kg/ha and dilution factor is 2.5. Chemical application was performed one day after thinning out in a chemical hood. 5 μL applied on first two true leaves in each well using 12 channel pipettes. Data collection: RGB (red, green, blue) data for green area per well was documented using camera. Data is collected at a few time points during the experiment: one day after thinning and before chemical application, two-, six- or nine-days post application. During the last two documentations, visual phenotyping was performed. Data analysis: Given RGB results and visual phenotype scores, a student t-test conducted to compare between treatment and control performance for continuous data (RGB) and Fisher exact test to analyze the non-continuous data (phenotypic scores). […]
as §3

Eragrostis teff = assay: HTPS pre-emergence on monocot model plants; format: in vivo; conditions: green area (RGB)
Description: A 96 well plate was used as a stock plate for preparing application solutions for 8 repeats. Each row contained different concentrations per chemical. Maximal concentration for application was 1.5 kg/ha and dilution factor is 2.5. Chemical application was performed one day after thinning out in a chemical hood. 5 μL applied on first two true leaves in each well using 12 channel pipettes. Data collection: RGB (red, green, blue) data for green area per well was documented using camera. Data is collected at a few time points during the experiment: one day after thinning and before chemical application, two-, six- or nine-days post application. During the last two documentations, visual phenotyping was performed. Data analysis: Given RGB results and visual phenotype scores, a student t-test conducted to compare between treatment and control performance for continuous data (RGB) and Fisher exact test to analyze the non-continuous data (phenotypic scores). Dose-Response curves are generated for each treatment to infer ED50 and max. inhibition parameters, using treatment's log concentration range as the […] variable and normalized green area.
These experiments are conducted similarly except that either Arabidopsis thaliana or Eragrostis teff seeds were sowed (5-10 or 5-7, respectively), plant thinning out was not performed, compound dissolved into a final solution of 50% acetone, 49.9% DDW, compound application was done at 30 μL volume per well directly on sowed soil before plant emergence and data was collected 10 or 7 days after chemical application on dicot or monocot plants, respectively.
Plate imaging performed at 11 and 18 DAA. RGB data for green area per well was documented and used to extract % inhibition. […]
as §3

Amaranthus palmeri [18] = assay: LTP post-emergence greenhouse screen
Description: as §6, §7

Amaranthus retroflexus = assay: LTP pre-emergence greenhouse screen; format: in vivo
Description: as §1, §2

CC(O)C(N)C/C=C/CC(=O)O (stereo not shown) [Compound 101]
IG: inhibited growth (Alopecurus myosuroides): IG (80) | IG: inhibited growth (Digitaria sanguinalis [1]): IG (100) | IG: inhibited growth (Echinochloa colona [2]): IG (100) | IG: inhibited growth (Echinochloa crus-galli [3]): IG (100) | IG: inhibited growth (Lolium multiflorum [4]): IG (100) | IG: inhibited growth (Lolium perenne [5]): IG (80) | IG: inhibited growth (Phalaris paradoxa): IG (80) | IG: inhibited growth (Poa annua [6]): IG (100) | inhibition at up to 1500 g/ha (Arabidopsis thaliana [7]): 100% | control of weeds (in words) ([8]; monocot and eudicot weeds species, post-emergence and pre-emergence, most of the species tested): excellent control | control (in words) [9]: excellent to very good control | DAB: disturbed apical bud (Setaria viridis): IG (60), DAB (60) | IG: inhibited growth (Setaria viridis): IG (60), DAB (60) | Bl: bleaching (Alopecurus monureide's): 60 | DAB: disturbed apical bud (Alopecurus monureide's): IG (80), DAB (80), | Drd: disturbed root growth (Alopecurus monureide's): 80 | IG: inhibited growth (Alopecurus monureide's): IG (80), DAB (80), | Drd: disturbed root growth (Lolium perenne [10]): 80 | IG: inhibited growth (Lolium perenne [10]): 60 | Drd: disturbed root growth (Poa annua [11]): IG (80), Drd (80) | IG: inhibited growth (Poa annua [11]): IG (80), Drd (80) | DAB: disturbed apical bud (Echinochloa colona [12]): 60 | Drd: disturbed root growth (Echinochloa colona [12]): Drd (80) | IG: inhibited growth (Echinochloa colona [12]): 80 | DAB: disturbed apical bud (Digitaria sanguinalis [13]): IG (80), DAB (80), | Drd: disturbed root growth (Digitaria sanguinalis [13]): Drd (80) | IG: inhibited growth (Digitaria sanguinalis [13]): IG (80), DAB (80), | Drd: disturbed root growth (Lolium multiflorum [14]): Drd (60) | DAB: disturbed apical bud (Echinochloa crus-galli [15]): 60 | Drd: disturbed root growth (Echinochloa crus-galli [15]): Drd (80) | IG: inhibited growth (Echinochloa crus-galli [15]): 80

C[C@@H](O)[C@@H](N)/C=C/C=C/C(=O)O [Compound 110]
IG: inhibited growth (Amaranthus palmeri [16]): IG (80) | IG: inhibited growth (Matricaria chamomilla): IG (60) | IG: inhibited growth (Poa annua [6]): IG (60) | Drd: disturbed root growth (Amaranthus tuberculatus): Drd (80) | inhibition at up to 1500 g/ha (Arabidopsis thaliana [7]): 100% | activity on dicots and monocots (in words) ([8]; applied pre-emergence): good to moderate activity | control (in words) [9]: excellent to very good control | Bl: bleaching (Galium aparine): Bl (60)

NC1(C/C=C/CC(=O)O)CC1 [Compound 112]
inhibition at up to 1500 g/ha (Arabidopsis thaliana [7]): 87.5% | Max inhibition (%) (Arabidopsis thaliana [17]): 100% | Max inhibition (%) (Eragrostis teff): 51%

NC1CCC/C(=C\CCC(=O)O)C1 (stereo not shown) [Compound 119]
IG: inhibited growth (Amaranthus palmeri [16]): IG (80) | IG: inhibited growth (Echinochloa colona [2]): IG (60) | inhibition at up to 1500 g/ha (Arabidopsis thaliana [7]): 100% | growth inhibition (in words) [8]: very good to moderate growth inhibition

NC1CCCC(/C=C/CC(=O)O)C1 (stereo not shown) [Compound 124]
IG: inhibited growth (Alopecurus myosuroides): IG (80) | IG: inhibited growth (Amaranthus palmeri [16]): IG (80) | IG: inhibited growth (Echinochloa colona [2]): IG (100) | IG: inhibited growth (Poa annua [6]): IG (100) | inhibition at up to 1500 g/ha (Arabidopsis thaliana [7]): 100% | growth inhibition (in words) [8]: very good to moderate growth inhibition

NC1(C/C=C/CC(=O)O)CCC1 [Compound 125]
IG: inhibited growth (Alopecurus myosuroides): IG (60) | IG: inhibited growth (Amaranthus palmeri [16]): IG (80) | IG: inhibited growth (Lolium perenne [5]): IG (80) | IG: inhibited growth (Matricaria chamomilla): IG (60) | IG: inhibited growth (Poa annua [6]): IG (100) | inhibition at up to 1500 g/ha (Arabidopsis thaliana [7]): 100% | growth inhibition (in words) [8]: very good to moderate growth inhibition | IG: inhibited growth (Setaria viridis): IG (60) | IG: inhibited growth (Poa annua [11]): IG (60) | IG: inhibited growth (Amaranthus palmeri [18]): IG (60)

NC(C/C=C/CC(=O)O)C1CC1 (stereo not shown) [Compound 146]
IG: inhibited growth (Alopecurus myosuroides): IG (60) | IG: inhibited growth (Amaranthus palmeri [16]): IG (80) | IG: inhibited growth (Poa annua [6]): IG (60) | inhibition at up to 1500 g/ha (Arabidopsis thaliana [7]): 100% | Max inhibition (%) (Eragrostis teff): 100% | growth inhibition (in words) [8]: very good to moderate growth inhibition

NC1CCCC(C#CCC(=O)O)C1 (stereo not shown) [Compound 154]
IG: inhibited growth (Alopecurus myosuroides): IG (80) | IG: inhibited growth (Amaranthus palmeri [16]): IG (80) | IG: inhibited growth (Echinochloa colona [2]): IG (100) | IG: inhibited growth (Poa annua [6]): IG (100) | inhibition at up to 1500 g/ha (Arabidopsis thaliana [7]): 100% | growth inhibition (in words) [8]: very good to moderate growth inhibition

CC(C)C(N)C/C=C/CC(=O)O (stereo not shown) [Compound 157]
inhibition at up to 1500 g/ha (Arabidopsis thaliana [7]): 100%

CCCC(N)C/C=C/CC(=O)O (stereo not shown) [Compound 166]
inhibition at up to 1500 g/ha (Arabidopsis thaliana [7]): 75% | Max inhibition (%) (Eragrostis teff): 47%

CC(N)CC/C=C/CC(=O)O (stereo not shown) [Compound 169]
IG: inhibited growth (Amaranthus retroflexus): IG (80) | inhibition at up to 1500 g/ha (Arabidopsis thaliana [7]): 100%

CC(N)CCC/C=C/C(=O)O (stereo not shown) [Compound 170]
IG: inhibited growth (Amaranthus retroflexus): IG (90) | inhibition at up to 1500 g/ha (Arabidopsis thaliana [7]): 100%

CC(O)C(N)/C=C/CCC(=O)O (stereo not shown) [Compound 172]
inhibition at up to 1500 g/ha (Arabidopsis thaliana [7]): 100%
